# Measured values as given in US11572590B2, “Methods for evaluating tumor cell spheroids using 3D microfluidic cell culture device” (Dana-Farber Cancer Institute, Inc., priority 2017, dated 2023).
# Where two headings read alike, the source gives them in different places.
# Target: T1, off-target kinases (Homo sapiens, UniProt P54762)
# T1 sequence (P54762 18-984): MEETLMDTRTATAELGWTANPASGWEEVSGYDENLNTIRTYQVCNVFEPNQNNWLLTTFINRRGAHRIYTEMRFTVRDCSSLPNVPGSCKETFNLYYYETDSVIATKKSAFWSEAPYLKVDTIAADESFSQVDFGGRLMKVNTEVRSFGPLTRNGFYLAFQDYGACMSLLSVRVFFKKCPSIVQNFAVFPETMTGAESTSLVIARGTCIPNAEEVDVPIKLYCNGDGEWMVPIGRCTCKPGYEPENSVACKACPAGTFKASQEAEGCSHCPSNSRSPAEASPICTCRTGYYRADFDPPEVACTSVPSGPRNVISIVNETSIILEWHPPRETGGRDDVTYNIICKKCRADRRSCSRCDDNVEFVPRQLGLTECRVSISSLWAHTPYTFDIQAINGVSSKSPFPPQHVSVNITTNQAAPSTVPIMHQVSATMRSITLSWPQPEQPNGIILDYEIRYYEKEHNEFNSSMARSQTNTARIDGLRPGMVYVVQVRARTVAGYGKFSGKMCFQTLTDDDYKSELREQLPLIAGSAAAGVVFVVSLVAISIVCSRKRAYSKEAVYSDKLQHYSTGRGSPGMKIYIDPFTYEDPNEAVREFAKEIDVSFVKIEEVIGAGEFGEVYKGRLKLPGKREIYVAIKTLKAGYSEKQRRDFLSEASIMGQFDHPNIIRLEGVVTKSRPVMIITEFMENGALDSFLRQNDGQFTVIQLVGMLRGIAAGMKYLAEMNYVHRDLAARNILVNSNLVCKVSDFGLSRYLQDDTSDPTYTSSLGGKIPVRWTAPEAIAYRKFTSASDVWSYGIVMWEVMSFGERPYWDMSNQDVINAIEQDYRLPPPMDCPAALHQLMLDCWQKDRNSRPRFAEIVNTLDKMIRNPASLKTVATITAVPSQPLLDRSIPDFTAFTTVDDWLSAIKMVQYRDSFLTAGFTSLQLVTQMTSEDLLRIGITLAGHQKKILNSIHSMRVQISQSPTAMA
# Experiment: SelectScreen Kinase Profiling, single point inhibition and IC50 for off-target kinases
# Type: biochemical
# Conditions: EPHB1, ZLYTE, ATP Km app
smiles,measurement,setting,value
"N#Cc1cc(-c2ncnc(Nc3ccc(N4CCN(C5COC5)CC4)cc3)n2)ccc1OC1CCOCC1 [Compound 1, 5-(4-((4-(4-(oxetan-3-yl)piperazin-1-yl)phenyl)amino)-1,3,5-triazin-2-yl)-2-((tetrahydro-2H-pyran-4-yl)oxy)benzonitrile]",inhibition,read-out: % Inhibition 1,34%
same,inhibition,read-out: % Inhibition 2,31%
same,inhibition,read-out: % Inhibition Avg,33%
